What was measured:
TNF-α = test: LPS+PHA-induced TNF-α secretion in whole blood under oxidative stress (H2O2); assay type: cell-based, human
Experimental: FIG. 10 Effect of ATP on LPS+PHA-induced TNF-α secretion in whole blood from healthy subjects under conditions of oxidative stress. Two concentrations of H2O2 (1 and 10 mM) were added to whole blood, followed by the incubation with the concentrations of ATP. Then, blood was exposed to 10 μg/ml LPS and 1 μg/ml PHA, and incubated for 24 h. The TNF-α released into the supernatants was analyzed using the ELISA method. […] Data are expressed as the mean values; error bars represent SEM.
Whole blood of healthy subjects was collected as described for Experiment 2, and pre-incubated with 1 or 10 mM H2O2 at 5% CO2 and 37° C. for 15 min. Then, ATP was added to the blood at final concentrations of 1-300 μM for the 30 min incubation step, and then incubated as in Experiment 2 with LPS/PHA for 24 hours.

TNFα = TNFα secretion in whole blood after γ-irradiation; assay type: cell-based; settings: 300 μM ATP, 16 Gy, 3 and 5 h post-irradiation
Experimental: FIG. 18 Effect of ATP on cytokine secretion in whole blood after γ-irradiation. Blood was pre-incubated with 300 μM ATP or medium (control) for 30 minutes and then irradiated with γ-radiation (16 Gy).
Samples with 5 ml of blood were pre-incubated with 300 μM ATP or medium (control) for 30 minutes. Then, at t=0, each blood sample was irradiated with γ-radiation at a dose of 16 Gy. Preceding irradiation (baseline) and at 1 h, 3 h and 5 h post-irradiation, a sample was taken for analysis of intracellular GSH and GSH/GSSG ratios according to standard methods, as well as for cytokine analysis by the ELISA method.

[1] = test system: guinea pig alveolar macrophages; test: Guinea pig alveolar macrophages incubated with LPS and spin-trap DMPO; assay type: cell-based
Text: As mentioned above, ATP is known to enhance the oxidative burst of neutrophils and other phagocytic cells. […] In a study using guinea pig alveolar macrophages (according to (35, 36)) we confirmed the ATP dependent increase in H2O2 formation. […] This finding underlines the importance and practical relevance of the present invention that ATP attenuates of hydroxyl radical DMPO adduct formation in a more chemically oriented set-up. Our finding that the formation of the DMPO—OH adducts is inhibited by the presence of ATP, also in incubations with alveolar macrophages, is of great promise for the protective effect of ATP in diseases and conditions in which oxidative stress plays a predominant role, as discussed on the previous pages.

[2] = ATP infusions in pre-terminal cancer patients; assay type: in vivo, human
Experimental: Patients with different diseases received infusions of 10-75 μg/kg·min over 8-24 h, at intervals of 1-4 weeks in different randomized clinical trials. In all cases, the first. infusion was given under clinical supervision, subsequent infusions were given in the setting of private homes. Preliminary results in small numbers of patients with persistent rheumatoid arthritis, chronic fatigue syndrome, and cancer in the pre-terminal stage, and lung cancer during curative radiotherapy are given below.
This study was performed in patients of different tumour types with a life expectation of between 8 and 12 weeks. Patients received a maximum of 8 ATP infusions (8 h) at an infusion rate of max. 50 μg/kg·min. […] These subjective improvements were supported by objective outcome assessment using validated questionnaires for self-reliance (Groningen Activity Restriction Scale, GARS), fatigue (Short Fatigue Questionnaire, Smets et al.), and appetite (visual analogue scale, VAS). Below, some of the major effects in these five patients are summarized. Patient 1 (non-small-cell lung cancer): Despite a very low ATP dose (=20-30 μg/kg·min), this patient spontaneously reported that they felt more energetic. Before the study, the patient was not able to independently dress, undress, get in/out of bed, to get out of a chair, or to wash their hands, face or body. After 8 weeks of ATP, the patient was able to perform all of these activities independently. Over 8 weeks, their appetite improved markedly: EORTC-QLQ-30 (4-point scale): improvement from 4 to 1, and on VAS [0-100 mm], from 13 to 63 before lunch, and from 17 to 70 before dinner. The patient's treating pulmonologist concluded a “miraculous improvement” over the 8-week treatment period. On request of the patient, ATP infusions were continued. Patient 2 (primary liver carcinoma): This patient, who suffered from marked anorexia, spontaneously reported that they were “eating again like a building worker” after 8 weeks of ATP treatment. […] Furthermore, the patient felt less tired within 2 weeks of starting ATP infusions. Patient 3 (melanoma): This patient reported marked improvement in appetite. This was confirmed by outcome assessment (VAS), in addition, marked amelioration in fatigue and self reliance was found. After 8 infusion, the patient pledged to continue the ATP infusions. […] After 5 infusions, the patient decided that they felt so much better that they wanted to continue the infusions after the study. Patient 5 (pancreas cancer; study still ongoing): After 4 infusions, the patient noted to feel much more energetic.

[3] = Side effects of intravenous ATP infusions; assay type: in vivo, human; settings: over 60 home infusions in cancer patients
Experimental: For reasons of patients' safety, there has been no attempt to administer ATP outside a strict medical setting to date. In particular, WO 03/061568 (Rapaport) discloses the administration of ATP over a period of typically 8-10 hours in an outpatient setting within the hospital. […] Thus, both our data and US 2003/0109486 contradict the disclosure of WO 03/061568.
In order to determine the tolerance for ATP as well as the maximally tolerated dose of ATP, the first ATP infusion is preferably administered under medical supervision, usually in an in- or outpatient setting. Subsequent infusions can either be started at the hospital day care centre, at private homes, nursing homes, etc. according to a standardized protocol.

[4] = cited from earlier work

With `Nc1ncnc2c1ncn2[C@@H]1O[C@H](COP(=O)(O)OP(=O)(O)OP(=O)(O)O)[C@@H](O)[C@H]1O` [ATP, Adenosine 5′-triphosphate] as the molecule, how does the “effect on LPS+PHA-induced TNF-α release” value (TNF-α; 1 or 10 mM H2O2) read?
Its value is “significantly inhibited”.

And the “effect on TNF-α release” value (TNF-α; ATP below 100 μM, 1 or 10 mM H2O2)?
Its value is “did not affect”.

What about the inhibition at 300 µM (TNF-α; Homo sapiens, 300 μM ATP, 1 or 10 mM H2O2, LPS-PHA, read-out: inhibition of TNF-α release) of the same molecule?
The inhibition at 300 µM was about 50%.

What about the “effect on irradiation-induced TNFα stimulation” value (TNFα) of the same molecule?
Its value is “completely blocked”.

What about the “effect on H2O2 formation” value [1] of the same molecule?
Its value is “increase”.

And the “effect on DMPO—OH adduct formation” value ([1]; macrophages incubated with LPS)?
The value was “inhibited”.

And the “appetite VAS [0-100 mm] before dinner” value ([2]; Patient 1, before)?
Its value is 17 mm.

What about the “appetite VAS [0-100 mm] before lunch” value ([2]; Patient 1, before) of the same molecule?
The value was 13 mm.

And the “appetite, EORTC-QLQ-30 (4-point scale)” value ([2]; Patient 1, before)?
The value was 4.

And the “appetite VAS [0-100 mm] before dinner” value ([2]; Patient 1, over 8 weeks of ATP)?
The value was 70 mm.

What about the “appetite VAS [0-100 mm] before lunch” value ([2]; Patient 1, over 8 weeks of ATP) of the same molecule?
The value was 63 mm.

And the “appetite, EORTC-QLQ-30 (4-point scale)” value ([2]; Patient 1, over 8 weeks of ATP)?
Its value is 1.

What about the “appetite VAS (0-100)” value ([2]; Patient 2, before) of the same molecule?
Its value is 20.

And the “appetite VAS (0-100)” value ([2]; Patient 2, within 4 weeks)?
Its value is 95.

And the “fatigue, 7-point scale (mean of four items of SFQ)” value ([2]; Patient 4, after 4 weeks of ATP infusions)?
The value was 5.8.

What about the “fatigue, 7-point scale (mean of four items of SFQ)” value ([2]; Patient 4, before) of the same molecule?
Its value is 2.8.

And the “patients spontaneously reporting marked improvements” value ([2]; patients who had completed >4 ATP infusions)?
The value was 5 out of 19.

And the “serious side effects grade 3-4 on the WHO Common Toxicity Criteria scale” value [3]?
The value was “no serious side effects”.

What about the “effect on plasma levels of pro- or anti-inflammatory cytokines” value ([4]; Swennen et al. 2004) of the same molecule?
The value was “neither an effect”.

And the “loss of weight and muscle mass compared to a control group” value ([4]; regular infusions)?
The value was “inhibited”.

— patent US20090215713A1, “Use of atp for the manufacture of a medicament for the prevention and treatment of oxidative stress and related conditions” (priority 2004, published 2009)
